Reference: the supplement of paper PMC10307832

How the values were obtained:
Assay in all cases: relative viability (nuclei count vs DMSO), 5 days (fraction); higher = more cells survive
Afatinib + AZD7762 = compound: CN(C)C/C=C/C(=O)Nc1cc2c(Nc3ccc(F)c(Cl)c3)ncnc2cc1O[C@H]1CCOC1 [Afatinib] + NC(=O)Nc1cc(-c2cccc(F)c2)sc1C(=O)N[C@H]1CCCNC1 [AZD7762] (partner 0.2 µM)
How it was run: (§1)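 Each reported value is a median over duplicate plates. It expresses relative viability: treated-well nuclei count divided by vehicle-well nuclei count. Lung cancer cell lines in 1536-well plates were dosed by pin tool a day after seeding, alone with one drug or with a fixed anchor-drug dose plus five library-drug doses (not always all listed) in √10 steps, and nuclei were counted after 5 days.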

Afatinib + Pemetrexed = compound: CN(C)C/C=C/C(=O)Nc1cc2c(Nc3ccc(F)c(Cl)c3)ncnc2cc1O[C@H]1CCOC1 [Afatinib] + Nc1nc2[nH]cc(CCc3ccc(C(=O)N[C@@H](CCC(=O)O)C(=O)O)cc3)c2c(=O)[nH]1 [Pemetrexed] (partner 0.2 µM)
How it was run: as §1

Afatinib + OSI-027 = compound: CN(C)C/C=C/C(=O)Nc1cc2c(Nc3ccc(F)c(Cl)c3)ncnc2cc1O[C@H]1CCOC1 [Afatinib] + COc1cccc2cc(-c3nc([C@H]4CC[C@H](C(=O)O)CC4)n4ncnc(N)c34)[nH]c12 [OSI-027] (partner 0.5 µM)
How it was run: as §1

Afatinib + Foretinib = compound: CN(C)C/C=C/C(=O)Nc1cc2c(Nc3ccc(F)c(Cl)c3)ncnc2cc1O[C@H]1CCOC1 [Afatinib] + COc1cc2c(Oc3ccc(NC(=O)C4(C(=O)Nc5ccc(F)cc5)CC4)cc3F)ccnc2cc1OCCCN1CCOCC1 [Foretinib] (partner 0.25 µM)
How it was run: as §1

Cell Line: HCC-827
- relative viability (Afatinib + AZD7762; first compound 0.005 µM): 0.11
- relative viability (Afatinib + AZD7762; first compound 0.01581 µM): 0.119
- relative viability (Afatinib + AZD7762; first compound 0.05 µM): 0.125
- relative viability (Afatinib + AZD7762; first compound 0.1581 µM): 0.121
- relative viability (Afatinib + AZD7762; first compound 0.5 µM): 0.0942
- relative viability (Afatinib + Pemetrexed; first compound 0.005 µM): 0.118
- relative viability (Afatinib + Pemetrexed; first compound 0.01581 µM): 0.157
- relative viability (Afatinib + Pemetrexed; first compound 0.05 µM): 0.153
- relative viability (Afatinib + Pemetrexed; first compound 0.1581 µM): 0.153
- relative viability (Afatinib + Pemetrexed; first compound 0.5 µM): 0.159
- relative viability (Afatinib + OSI-027; first compound 0.005 µM): 0.159
- relative viability (Afatinib + OSI-027; first compound 0.01581 µM): 0.122
- relative viability (Afatinib + OSI-027; first compound 0.05 µM): 0.153
- relative viability (Afatinib + OSI-027; first compound 0.1581 µM): 0.153
- relative viability (Afatinib + OSI-027; first compound 0.5 µM): 0.141
- relative viability (Afatinib + Foretinib; first compound 0.005 µM): 0.135
- relative viability (Afatinib + Foretinib; first compound 0.01581 µM): 0.166
- relative viability (Afatinib + Foretinib; first compound 0.05 µM): 0.162
- relative viability (Afatinib + Foretinib; first compound 0.1581 µM): 0.147
- relative viability (Afatinib + Foretinib; first compound 0.5 µM): 0.163

Cell Line: HCC-78
- relative viability (Afatinib + AZD7762; first compound 0.005 µM): 0.693
- relative viability (Afatinib + AZD7762; first compound 0.01581 µM): 0.542
- relative viability (Afatinib + AZD7762; first compound 0.05 µM): 0.509
- relative viability (Afatinib + AZD7762; first compound 0.1581 µM): 0.478
- relative viability (Afatinib + AZD7762; first compound 0.5 µM): 0.449
- relative viability (Afatinib + Pemetrexed; first compound 0.005 µM): 0.924
- relative viability (Afatinib + Pemetrexed; first compound 0.01581 µM): 0.869
- relative viability (Afatinib + Pemetrexed; first compound 0.05 µM): 0.904
- relative viability (Afatinib + Pemetrexed; first compound 0.1581 µM): 0.915
- relative viability (Afatinib + Pemetrexed; first compound 0.5 µM): 0.902
- relative viability (Afatinib + OSI-027; first compound 0.005 µM): 0.443
- relative viability (Afatinib + OSI-027; first compound 0.01581 µM): 0.326
- relative viability (Afatinib + OSI-027; first compound 0.05 µM): 0.331
- relative viability (Afatinib + OSI-027; first compound 0.1581 µM): 0.317
- relative viability (Afatinib + OSI-027; first compound 0.5 µM): 0.283
- relative viability (Afatinib + Foretinib; first compound 0.005 µM): 0.549
- relative viability (Afatinib + Foretinib; first compound 0.01581 µM): 0.568
- relative viability (Afatinib + Foretinib; first compound 0.05 µM): 0.405
- relative viability (Afatinib + Foretinib; first compound 0.1581 µM): 0.324
- relative viability (Afatinib + Foretinib; first compound 0.5 µM): 0.386

Cell Line: NCI-H2085
- relative viability (Afatinib + AZD7762; first compound 0.005 µM): 0.753
- relative viability (Afatinib + AZD7762; first compound 0.01581 µM): 0.957
- relative viability (Afatinib + AZD7762; first compound 0.05 µM): 0.897
- relative viability (Afatinib + AZD7762; first compound 0.1581 µM): 0.636
- relative viability (Afatinib + AZD7762; first compound 0.5 µM): 0.753
- relative viability (Afatinib + Pemetrexed; first compound 0.005 µM): 0.821
- relative viability (Afatinib + Pemetrexed; first compound 0.01581 µM): 0.671
- relative viability (Afatinib + Pemetrexed; first compound 0.05 µM): 0.842
- relative viability (Afatinib + Pemetrexed; first compound 0.1581 µM): 0.681
- relative viability (Afatinib + Pemetrexed; first compound 0.5 µM): 0.699
- relative viability (Afatinib + OSI-027; first compound 0.005 µM): 0.71
- relative viability (Afatinib + OSI-027; first compound 0.01581 µM): 0.61
- relative viability (Afatinib + OSI-027; first compound 0.05 µM): 0.541
- relative viability (Afatinib + OSI-027; first compound 0.1581 µM): 0.366
- relative viability (Afatinib + OSI-027; first compound 0.5 µM): 0.366
- relative viability (Afatinib + Foretinib; first compound 0.005 µM): 0.888
- relative viability (Afatinib + Foretinib; first compound 0.01581 µM): 0.773
- relative viability (Afatinib + Foretinib; first compound 0.05 µM): 0.791
- relative viability (Afatinib + Foretinib; first compound 0.1581 µM): 0.59
- relative viability (Afatinib + Foretinib; first compound 0.5 µM): 0.628

Cell Line: PC-14
- relative viability (Afatinib + AZD7762; first compound 0.005 µM): 0.235
- relative viability (Afatinib + AZD7762; first compound 0.01581 µM): 0.157
- relative viability (Afatinib + AZD7762; first compound 0.05 µM): 0.139
- relative viability (Afatinib + AZD7762; first compound 0.1581 µM): 0.166
- relative viability (Afatinib + AZD7762; first compound 0.5 µM): 0.14
- relative viability (Afatinib + Pemetrexed; first compound 0.005 µM): 0.155
- relative viability (Afatinib + Pemetrexed; first compound 0.01581 µM): 0.155
- relative viability (Afatinib + Pemetrexed; first compound 0.05 µM): 0.164
- relative viability (Afatinib + Pemetrexed; first compound 0.1581 µM): 0.165
- relative viability (Afatinib + Pemetrexed; first compound 0.5 µM): 0.149
- relative viability (Afatinib + OSI-027; first compound 0.005 µM): 0.103
- relative viability (Afatinib + OSI-027; first compound 0.01581 µM): 0.104
- relative viability (Afatinib + OSI-027; first compound 0.05 µM): 0.136
- relative viability (Afatinib + OSI-027; first compound 0.1581 µM): 0.131
- relative viability (Afatinib + OSI-027; first compound 0.5 µM): 0.0975
- relative viability (Afatinib + Foretinib; first compound 0.005 µM): 0.45
- relative viability (Afatinib + Foretinib; first compound 0.01581 µM): 0.149
- relative viability (Afatinib + Foretinib; first compound 0.05 µM): 0.184
- relative viability (Afatinib + Foretinib; first compound 0.1581 µM): 0.179
- relative viability (Afatinib + Foretinib; first compound 0.5 µM): 0.183
